Test results taken from paper PMC3504309 (ChemMedChem, 2011).

Tested on: human K562 cells
Test: Human K562 growth inhibition assay
Type: cell-based
Conditions: for Antiproliferative effect on growth of human K562 cells (in words): 333 μM was the highest concentration tested; for IC50: Homo sapiens, K562, 48 h, read-out: Growth inhibition of human K562 cells IC50

| SMILES | Antiproliferative effect on growth of human K562 cells (in words) | IC50 |
| --- | --- | --- |
| CO[C@@H](C(=O)NCC1CCCN(C(=O)C(C)C)C1)[C@H](O)[C@@H](O)[C@H](O)/C=C/C(C)(C)C (stereo partly drawn) [Compound 4, (2R,3R,4S,5R,E)-3,4,5-trihydroxy-N-((1-isobutyrylpiperidin-3-yl)methyl)-2-methoxy-8,8-dimethylnon-6-enamide] | no or weak activity | > 333 µM |
| CO[C@@H](C(=O)NCC1CCCN(C(=O)C2CC2)C1)[C@H](O)[C@@H](O)[C@H](O)/C=C/C(C)(C)C (stereo partly drawn) [Compound 5, (2R,3R,4S,5R,E)-N-((1-(cyclopropanecarbonyl)piperidin-3-yl)methyl)-3,4,5-trihydroxy-2-methoxy-8,8-dimethylnon-6-enamide] | no or weak activity | > 333 µM |
| CO[C@@H](C(=O)NCCC(c1ccccc1)c1ccco1)[C@H](O)[C@@H](O)[C@H](O)/C=C/C(C)(C)C (stereo partly drawn) [Compound 6, (2R,3R,4S,5R,E)-N-(3-(furan-2-yl)-3-phenylpropyl)-3,4,5-trihydroxy-2-methoxy-8,8-dimethylnon-6-enamide] | low and reproducible activity | 79.6 µM |
| CO[C@@H](C(=O)NCCC(c1ccc(F)cc1)c1ccco1)[C@H](O)[C@@H](O)[C@H](O)/C=C/C(C)(C)C (stereo partly drawn) [Compound 7, (2R,3R,4S,5R,E)-N-(3-(4-fluorophenyl)-3-(furan-2-yl)propyl)-3,4,5-trihydroxy-2-methoxy-8,8-dimethylnon-6-enamide] | low and reproducible activity | 96.5 µM |
| CO[C@@H](C(=O)NC1Cc2ccccc2C1)[C@H](O)[C@@H](O)[C@H](O)/C=C/C(C)(C)C [Compound 8, (2R,3R,4S,5R,E)-N-(2,3-dihydro-1H-inden-2-yl)-3,4,5-trihydroxy-2-methoxy-8,8-dimethylnon-6-enamide] | no or weak activity | > 333 µM |
| CO[C@@H](C(=O)NCC(N)=O)[C@H](O)[C@@H](O)[C@H](O)/C=C/C(C)(C)C [Compound 9, (2R,3R,4S,5R,E)-N-(2-amino-2-oxoethyl)-3,4,5-trihydroxy-2-methoxy-8,8-dimethylnon-6-enamide] | no or weak activity | > 333 µM |
| CO[C@@H](C(=O)NCCOc1c(C)cc(C)cc1C)[C@H](O)[C@@H](O)[C@H](O)/C=C/C(C)(C)C [Compound 10, (2R,3R,4S,5R,E)-3,4,5-trihydroxy-N-(2-(mesityloxy)ethyl)-2-methoxy-8,8-dimethylnon-6-enamide] | low and reproducible activity | 37.8 µM |
